# Measured values: patent EP4549575A1 (priority 2023, dated 2025)
# “And” between values parts separate entries of the source, which are not always exact repeats. Equal entries are not always repeated. Square brackets hold non-standard residues; d marks the D form. Peptide text beside a SMILES is read from it. βAla = NCCC(=O)O
# What was measured:
# [1] = test system: human kidney proximal tubular cells (HKC-8)
# [2] = test system: P. ultimum; assay type: cell-based, Pythium ultimum var. ultimum Trow
# [3] = Chemical-physical properties (isoelectric point, net charge, solubility in water); assay type: physicochemical; conditions: for net charge: at pH 7
# [4] = Conformational studies based on circular dichroism; assay type: physicochemical
# Method: Conformational studies based on circular dichroism were performed under different conditions, such as: • 10 mM phosphate buffer, pH 7 • MES buffer 10 mM, pH 6 • Buffer acetate 10 mM, pH 5 • Phosphate buffer 10 mM/TFE (1:1) • TFE (trifluoroethanol)
# Conformational studies based on circular dichroism were performed under different conditions such as: • 10 mM phosphate buffer, pH7 • Phosphate buffer 10mM/TFE, pH7 (1:1) • TFE (trifluoroethanol)
# Conformational studies based on circular dichroism were performed under different conditions, such as: • 10 mM phosphate buffer, pH7 • MES buffer 10 mM, pH6 • Buffer acetate 10 mM, pH5 • Phosphate buffer 10 mM/TFE, pH7 (1:1) • TFE (trifluoroethanol)
# Conformational studies based on circular dichroism were performed under different conditions, such as: • 10 mM phosphate buffer, pH7 • 10mM phosphate buffer/TFE (1:1) • TFE (trifluoroethanol)
# [5] = test system: P. viticola; assay type: in vivo, Plasmopara viticola (Berk. et Curt.) Berl. and De Toni; conditions: grapevine (Vitis vinifera cv. Pinot noir) leaf discs; mean ± standard deviation vs untreated control; concentration not given
# [6] = test system: P. capsici; assay type: cell-based, Phytophthora capsici Leonian
# [7] = test system: Agrobacterium tumefaciens GV3101; experiment: Specificity: growth in liquid culture (OD620); assay type: cell-based; conditions: 200 µM; LB medium; measured hourly up to 5 h
# [8] = pH 7-TFE: phosphate buffer 10 mM/TFE (1:1)
SMILES,"cytotoxicity (cell viability, absorption at 570 nm) [1]",P. ultimum (IPP - %) [2],isoelectric point [3] [pH],net charge [3],solubility in water [3],"Disordered (%) ([4]; 10 mM phosphate buffer, pH 7)","Helixes (%) ([4]; 10 mM phosphate buffer, pH 7)","Sheets (%) ([4]; 10 mM phosphate buffer, pH 7)","Turns (%) ([4]; 10 mM phosphate buffer, pH 7)",Disordered (%) ([4]; TFE (trifluoroethanol)),Helixes (%) ([4]; TFE (trifluoroethanol)),Sheets (%) ([4]; TFE (trifluoroethanol)),Turns (%) ([4]; TFE (trifluoroethanol)),"Disordered (%) [4, 8] [%]","Helixes (%) [4, 8] [%]","Sheets (%) [4, 8] [%]","Turns (%) [4, 8] [%]",P. viticola (IPP - %) [5],P. capsici (PIC - %) [6],bacterial growth (OD620) [7],other results
"CSCC[C@@H]1NC(=O)[C@H](Cc2c[nH]c3ccccc23)NC(=O)[C@H](CCCNC(=N)N)NC(=O)CCNC(=O)[C@H](CCCNC(=N)N)NC(=O)[C@H](CCCNC(=N)N)NC(=O)[C@H](Cc2ccc(O)cc2)NC(=O)[C@H](C(C)C)NC(=O)[C@H](CC(C)C)NC1=O [CP20, βA-R-W-M-L-V-Y-R-R] (cyclo(LVYRR[βAla]RWM))",not toxic to human cells,75% and 75.98 ± 4.54 (c) %,12.4,+3,good solubility in water,32,6,40,22,33,10,35,22,34,8,36,22,89.93 ± 11.69 (b) %,100% and 100 ± 0 (a) %,no alteration in bacterial growth,"Disordered (%) ([4]; MES buffer 10 mM, pH 6): 34%; Helixes (%) ([4]; MES buffer 10 mM, pH 6): 8%; Sheets (%) ([4]; MES buffer 10 mM, pH 6): 37%; Turns (%) ([4]; MES buffer 10 mM, pH 6): 21%; Disordered (%) ([4]; acetate buffer 10 mM, pH 5): 31%; Helixes (%) ([4]; acetate buffer 10 mM, pH 5): 7%; Sheets (%) ([4]; acetate buffer 10 mM, pH 5): 39%; Turns (%) ([4]; acetate buffer 10 mM, pH 5): 23%"
"CC(C)C[C@@H]1NC(=O)[C@H](CCCNC(=N)N)NC(=O)CNC(=O)CCNC(=O)[C@H](C(C)C)NC(=O)[C@H](CCCNC(=N)N)NC(=O)[C@H](CC(C)C)NC(=O)[C@H](Cc2c[nH]c3ccccc23)NC(=O)[C@H](CCCNC(=N)N)NC1=O [CP32, βA-G-R-L-R-W-L-R-V] (cyclo(GRLRWLRV[βAla]))",not toxic to human cells,85% and 85.42 ± 7.28 (b) %,14,+3,good solubility in water,43,5,34,18,47,6,29,18,44,5,33,18,95% and 94.92 ± 6.45 (b) %,89.25 ± 7.35 (b) %,no alteration in bacterial growth,–
